Laboratory results reported in US20200129412A1, “SILICONE PAD HAVING ACTIVE INGREDIENTS FOR SKIN CARE AND AGAINST SKIN AGING” (Apricot GmbH, priority 2017, published 2020).

Tested on: skin of a subject
Assay: Drug absorption study: diffusion of stained hyaluron from silicone pad into the skin
Assay type: in vivo
Conditions: 6 mg powdered hyaluron stained green in adhesive layer; 2 weeks of daily use on skin
Method: FIG. 3A depicts a silicone pad with an adhesive layer. The adhesive layer comprises 6 mg of powdered hyaluron (<20 T Dalton). […] For manufacturing a silicone pad, the adhesive layer was bonded to a silicone body. The silicone pad was applied daily to the skin of a subject for a period of 2 weeks.

With hyaluron the “concentration of hyaluron in the silicone pad after use (decrease of color)” value was “decreases markedly” and the “distribution of hyaluron from the pad” value was “delivered to the skin's lower layers”.
